Results as given in patent US6927035B1, “Antiuracil monoclonal antibody” (Taiho Pharmaceutical Co., LTD, priority 1999, dated 2005).
Converted amounts (≈) assume the structure as drawn.

What was measured:
[1] = test system: monoclonal antibody (SU-1) derived from hybridoma FERM BP-6141; assay: indirect competitive inhibition ELISA, cross reactivity test with comparative monoclonal antibody SU-1; format: binding; conditions: compound final concentration 0.5 mg/mL; uracil-BSA coated plate; absorbance at 415 nm
Method: Meanwhile, each of the follow samples: • (i) a mixture of the aforementioned hybridoma culture supernatant (30 μL) and PBS (30 μL); • (ii) a reaction mixture obtained by mixing the hybridoma culture supernatant (30 μL) and PBS (30 μL) containing uracil at a concentration of 0.03-1.0 mg/mL and causing reaction to proceed at 37° C. for one hour; and • (iii) […] healthy mouse IgG (product of Biologicals) was added to a 96-well plate to which the above antigen had been adsorbed (50 μL/well), and the plate was left to stand for one hour at 37° C. Subsequently, the plate was washed five times with PBS-T, and to each well, aliquots (50 μL) of AP-labeled anti-mouse antibody (serving as the second antibody, product of Sigma), which had been 1,000-fold diluted with PBS containing 0.1% gelatin, were added, and the mixtures were allowed to stand for one hour at 37° C. Subsequently, each well was washed five times with PBS-T. An enzyme substrate buffer solution (p-nitrophenylphosphate, 1 mg/mL, pH 9.8) was added to each well (100 μl/well), and left to stand for 30 minutes at 37° C. To the reaction mixtures, 2N NaOH ([…]) was added, to thereby stop the reaction. Absorbance at 415 nm was measured by use of a microplate reader. For comparison, the same procedure was independently performed on hybridoma FERM BP-6141 described in PCT publication No. WO99/20748. The percent absorption was calculated from the above-described equation.
In a manner similar to that of Example 7, reactivity of the monoclonal antibody of the present invention with other compounds was investigated. Specifically, the procedure of step (ii) of Example 7 for investigating inhibition with uracil was repeated, except that pseudouridine, dihydrouracil, dihydrothymine, thymine, cytosine, or N-carbamyl-β-alanine (1 mg/mL) was used instead of uracil (1 mg/mL), to thereby investigate reactivity of the monoclonal antibody of the present invention with uracil compounds. As a comparative antibody, a monoclonal antibody (SU-1) derived from hybridoma “FERM BP-6141” described in WO 99/20748 was used.

[2] = test system: monoclonal antibody of the present invention (CMU-1); assay: indirect competitive inhibition ELISA, cross reactivity test with monoclonal antibody CMU-1; format: binding, mouse; conditions: for percent absorption (reactivity) with monoclonal antibody CMU-1: compound final concentration 0.5 mg/mL, uracil-BSA coated plate, absorbance at 415 nm; for dose-dependent response of the antibody to the compound / ED30 (concentration when the percent absorption reached 30%) / binding ability relative to pseudouridine: monoclonal antibody CMU-1; for binding ability relative to pseudouridine: ratio of ED30 values
Method: Into a 96-well immunoplate, uracil-BSA complex (10 μg/mL as reduced to BSA) was placed at 50 μL/well, and allowed to stand overnight at 4° C. Subsequently, the immunoplate was washed 7 times with PBS containing 0.1% polyoxyethylene(20) sorbitan monolaurate (product of Wako Pure Chemical Industries, Ltd.; a product equivalent to Tween 20) (pH 7.3-7.7, product of Nissui Chemical; hereinafter referred to as PBS-T). Subsequently, 0.2% gelatin (200 μL) was added to each well, and the immunoplate was left for 2 hours at 37° C., or overnight at 4° C.
Subsequently, the immunoplate was washed five times with PBS-T, and one of the below-described samples (50 μL/well) was added to the immunoplate, which was then left for 1 hour at 37° C. • (i) a reaction mixture prepared by mixing the supernatant of the hybridoma culture obtained in Example 3 (hereinafter referred to as the hybridoma culture supernatant) (30 μL) and PBS (30 μL) for reaction at 37° C. for one hour; • a (ii) a reaction mixture obtained by mixing the hybridoma culture supernatant (30 μL) and a solution (30 μL) of uracil in PBS (uracil concentration: 1 mg/mL) for reaction at 37° C. for one hour; and • (iii) 1 μg/mL healthy mouse IgG (product of Biological). Subsequently, the wells were washed five times with PBS-T, and to each well was added alkaline-phosphatase-labeled (AP-labeled) anti-mouse-multivalent-immunoglobulin antibody (product of Sigma), which had been 1,000-fold diluted with 0.1% gelatin, (50 μL). Subsequently, the mixture was allowed to stand for one hour at 37° C. Subsequently, the wells were washed five times with PBS-T. A solution of disodium p-nitrophenylphosphate (product of Wako Chemical Industries, Ltd.) dissolved in substrate buffer (1 mg/mL) was added to each well (100 μL/well), and left for 30 minutes at 37° C. To the reaction mixtures, 2N NAOH (50 μL/well) was added and then mixed by use of a platemixer, to thereby stop the reaction. Absorbance at 415 nm was measured by use of a microplate reader.
The percent absorption was calculated by use of the following equation: [formula] wherein, • ODPBS: Absorbance measured by means of ELISA for a sample in which the hybridoma culture supernatant had been pre-treated only with PBS), • ODuracil: Absorbance measured by means of ELISA for a sample in which the hybridoma culture supernatant had been pre-treated with uracil in PBS), and • ODcontrol: Absorbance measured in ELISA of a sample treated only with heal thy mouse IgG).
By use of the hybridoma culture supernatant obtained from the above-described incubation, the reactivity of the monoclonal antibody, CMU-1, of the present invention was studied through the indirect competitive inhibition ELISA described in Example 4.
Specifically, an aliquot (50 μL) of uracil-BSA complex (10 μg/mL) was placed in each well of a 96-well immunoplate (Immunoplate I, product of Nunc), and allowed to stand overnight at 4° C. Each well was washed five times with PBS-T (200 μL) containing 0.1% Tween 20. Subsequently, to each well of the immunoplate, PBS (200 μL) containing 0.2% gelatin serving as a blocking agent was added, and the mixture was allowed to stand overnight at 4° C. Each well was again washed five times with PBS-T, to thereby prepare a plate.
Meanwhile, each of the follow samples: • (i) a mixture of the aforementioned hybridoma culture supernatant (30 μL) and PBS (30 μL); • (ii) a reaction mixture obtained by mixing the hybridoma culture supernatant (30 μL) and PBS (30 μL) containing uracil at a concentration of 0.03-1.0 mg/mL and causing reaction to proceed at 37° C. for one hour; and • (iii) […] healthy mouse IgG (product of Biologicals) was added to a 96-well plate to which the above antigen had been adsorbed (50 μL/well), and the plate was left to stand for one hour at 37° C. […]

[3] = test system: monoclonal antibody for psuedouridine; conditions: prior art antibody used for diagnosing a progressive cancer; cited from earlier work

SMILES	percent absorption (reactivity) with comparative monoclonal antibody SU-1 [1] [%]	percent absorption (reactivity) with monoclonal antibody CMU-1 [2]	dose-dependent response of the antibody to the compound [2]	reactivity with the monoclonal antibody for pseudouridine [3]	ED30 (concentration when the percent absorption reached 30%) [2] [µg/mL]	concentration range in which the compound is detected ([2]; monoclonal antibody CMU-1, FIG. 1) [mg/mL]	binding ability relative to pseudouridine [2] [times]
O=C1CCNC(=O)N1 [Dihydrouracil]	2	8%	no dose-dependent response	–	–	–	–
O=c1[nH]cc([C@@H]2O[C@H](CO)[C@@H](O)[C@H]2O)c(=O)[nH]1 [Pseudouridine]	26	32%	did exhibit dose-dependent response	95-99%	390 (≈ 1600 µM)	–	–
CC1CNC(=O)NC1=O (stereo not shown) [Dihydrothymine]	–	22%	no dose-dependent response	–	–	–	–
Nc1cc[nH]c(=O)n1 [Cytosine]	15	15%	no dose-dependent response	–	–	–	–
O=c1cc[nH]c(=O)[nH]1 [Uracil]	41	95-96%	exhibited dose-dependent response	30-40%	30 (≈ 268 µM)	0.005 to 0.5	13
NC(=O)NCCC(=O)O [N-Carbamyl-β-alanine]	91	8%	no dose-dependent response	–	–	–	–
Cc1c[nH]c(=O)[nH]c1=O [Thymine]	5	91-97%	exhibited dose-dependent response	–	15 (≈ 119 µM)	–	26
